Experimental data as given in ChEMBL document CHEMBL5576149, “Discovery of Potent STT3A/B Inhibitors and Assessment of Their Multipathogen Antiviral Potential and Safety” (J Med Chem, 2024).
pEC50: −log10 of the molar value. The source made the active and inactive calls. No cut-off for these calls is given here.

Assays:
[1] = Inhibition of STT3A/STT3B mediated N-linked glycosylation in human H1-HeLa cells stably transduced with ERluc by measuring effective concentration of inhibition incubated for 18 hrs by One-Glo luciferase reporter assay; type: cell-based
[2] = Chromatographic hydrophobicity index, logD of the compound at pH 7.4; type: physicochemical; settings: buffer
[3] = Unbound clearance in rat liver microsomes at 0.5 uM incubated upto 45 mins; type: ADME, Microsome; settings: 0.75 h
[4] = Cytotoxicity against human Hepatocyte cultured as 3D spheroids incubated for 14 days by CellTiter-Glo luminescence assay; type: toxicity, cell-based; settings: hepatocytes cultured as 3D spheroids
[5] = Unbound clearance in human liver microsomes at 0.5 uM incubated upto 45 mins; type: ADME, Microsome; settings: 0.75 h
Human respirovirus 3 = experiment: Antiviral activity against Human parainfluenza virus 3 JS infected in human A549 cells assessed as reduction in viral proliferation incubated for 44 hrs by Hoechst dye based fluorescence analysis; type: functional, organism-based; settings: Human respirovirus 3, JS, A549, 44 h
Human coronavirus 229E = experiment: Antiviral activity against Human coronavirus 229E infected in human MRC5 cells assessed as reduction in viral growth incubated for 68 hrs by CellTiter-Glo luminescence assay; type: functional, organism-based; settings: MRC5, 68 h
SARS-CoV-2 = experiment: Antiviral activity against SARS-CoV-2 infected in human A549 cells assessed as reduction in viral growth incubated for 24 hrs by Nano-Glo reagent based analysis; type: functional, organism-based; settings: Severe acute respiratory syndrome coronavirus 2, A549, 24 h
A549 [6] = experiment: Cytotoxicity against human A549 cells by fluorescent cell imaging assay; type: functional
[7] = Cytotoxicity against human MRC5 cells by luminescence-based cell viability assay; type: toxicity
A549 [8] = experiment: Cytotoxicity against human A549 cells; type: functional
[9] = Solubility of compound in FaSSIF; type: ADME
[10] = Unbound clearance in CD1 mouse at 2 mg/kg,po or 1 mg/kg,iv administrated upto 60 mins by LC-MS/MS analysis; type: ADME, organism-based; settings: in vivo, 1 h
[11] = Volume of distribution at steady state in CD1 mouse at 2 mg/kg,po or 1 mg/kg,iv administrated upto 60 mins by LC-MS/MS analysis; type: ADME, organism-based; settings: in vivo, 1 h
[12] = MRT in CD1 mouse at 2 mg/kg,po or 1 mg/kg,iv administrated upto 60 mins by LC-MS/MS analysis; type: ADME, organism-based; settings: in vivo
[13] = Bioavailability in CD1 mouse at 2 mg/kg,po or 1 mg/kg,iv administrated upto 60 mins by LC-MS/MS analysis; type: ADME, organism-based; settings: in vivo
[14] = Unbound clearance in Wistar Han rat at 2 mg/kg,po or 1 mg/kg,iv administrated upto 60 mins by LC-MS/MS analysis; type: ADME, organism-based; settings: in vivo, 1 h
[15] = Volume of distribution at steady state in Wistar Han rat at 2 mg/kg,po or 1 mg/kg,iv administrated upto 60 mins by LC-MS/MS analysis; type: ADME, organism-based; settings: in vivo, 1 h
[16] = MRT in Wistar Han rat at 2 mg/kg,po or 1 mg/kg,iv administrated upto 60 mins by LC-MS/MS analysis; type: ADME, organism-based; settings: in vivo
[17] = Bioavailability in Wistar Han rat at 2 mg/kg,po or 1 mg/kg,iv administrated upto 60 mins by LC-MS/MS analysis; type: ADME, organism-based; settings: in vivo
Influenza A virus [18] = experiment: Antiviral activity against influenza A virus H1N1 A/Puerto Rico/8/1934 infected in MDCK cells assessed as reduction in viral proliferation incubated for 24 hrs by FFU assay; type: functional, organism-based; settings: H1N1 A/Puerto Rico/8/1934, MDCK
[19] = Inhibition of STT3A/STT3B mediated N-linked glycosylation in STT3A knockout human H1-HeLa cells stably transduced with Halo3N-ER sequence by measuring effective concentration incubated for 24 hrs by Western blotting analysis; type: cell-based
[20] = Inhibition of STT3A/STT3B mediated N-linked glycosylation in STT3B knockout human H1-HeLa cells stably transduced with Halo3N-ER sequence by measuring effective concentration incubated for 24 hrs by Western blotting analysis; type: cell-based
Influenza A virus [21] = experiment: Antiviral activity against influenza A virus H1N1 A/Puerto Rico/8/1934 infected in MDCK cells assessed as reduction in viral replication measured after 30 hrs of post-infection by RT-qPCR analysis relative to control; type: functional; set-up: scale not given: the % may be the effect or the level left
Influenza A virus [22] = experiment: Antiviral activity against influenza A virus H1N1 A/Puerto Rico/8/1934 infected in MDCK cells assessed as reduction in viral replication measured after 3 hrs of post-infection by RT-qPCR analysis relative to control; type: functional; set-up: scale not given: the % may be the effect or the level left
H1-HeLa [23] = experiment: Inhibition of STT3A/STT3B in human H1-HeLa cells assessed as upregulation of DERL3 gene expression incubated for 24 hrs; type: cell-based
H1-HeLa [24] = experiment: Inhibition of STT3A/STT3B in human H1-HeLa cells assessed as upregulation of SDF2L1 gene expression incubated for 24 hrs; type: cell-based
H1-HeLa [25] = experiment: Inhibition of STT3A/STT3B in human H1-HeLa cells assessed as upregulation of […] gene expression incubated for 24 hrs; type: cell-based
H1-HeLa [26] = experiment: Inhibition of STT3A/STT3B in human H1-HeLa cells assessed as upregulation of MANF gene expression incubated for 24 hrs; type: cell-based
[27] = Neurotoxicity in human iPSC cells co-cultured with human astrocyte assessed as inhibition of cell growth at 300 nM incubated for 48 hr by multi-electrode array analysis relative to control; type: toxicity, cell-based; settings: ipsc, 48 h, 0.3 µM

CN(C)S(=O)(=O)c1ccc(N2CCCC2)c(-c2cc3cccnc3[nH]2)c1
pEC50 [1]: 6.39

CN(C)S(=O)(=O)c1cnc(N2CCCC2)c(-c2cc3ccccc3[nH]2)c1
pEC50 [1]: 6.11

O=C([C@H]1CCN1S(=O)(=O)c1ccc(N2CCC(F)(F)C2)c(-c2cc3ccccc3[nH]2)c1)N1CCOCC1
pEC50 [1]: 6.21
chromatographic logD [2]: 5.3
CL free [3]: 3480 mL/min/kg
IC50 at 14 days [4]: 2500 nM

O=C([C@@H]1CCN1S(=O)(=O)c1ccc(N2CC[C@@H](O)C2)c(-c2cc3ccccc3[nH]2)c1)N1CCOCC1
pEC50 [1]: 8.30
chromatographic logD [2]: 3.5
CL free [5]: 904 mL/min/kg
CL free [3]: 1998 mL/min/kg
pEC50 (Human respirovirus 3): 7.24
pEC50 (Human coronavirus 229E): 8.15
pEC50 (SARS-CoV-2): 8.40
CC50 (A549 [6]): 1950 nM
CC50 [7]: 926 nM
CC50 (A549 [8]): 2000 nM

CN(C)S(=O)(=O)c1ccc(N2CC[C@@H](O)C2)c(-c2cc3ccccc3[nH]2)c1
pEC50 [1]: 6.29
chromatographic logD [2]: 4.8
CL free [5]: 160 mL/min/kg
CL free [3]: 1795 mL/min/kg
IC50 at 14 days [4]: 6300 nM

CN(C)S(=O)(=O)c1ccc(N2CCC2)c(-c2cc3ccccc3[nH]2)c1
pEC50 [1]: 7.51
chromatographic logD [2]: 6.5
CL free [5]: 117 mL/min/kg
CL free [3]: 7395 mL/min/kg

CN(C)S(=O)(=O)c1ccc(N2CCCC2)c(-c2cc3ccccc3[nH]2)c1
pEC50 [1]: 7.68
chromatographic logD [2]: 7
CL free [5]: 303 mL/min/kg
CL free [3]: 23136 mL/min/kg
solubility [9]: < 1 µg/mL
CL free [10]: 61467 mL/min/kg
Vdss [11]: 6 L/kg
MRT [12]: 54 min
bioavailability [13]: 2%
CL free [14]: 102538 mL/min/kg
Vdss [15]: 5.7 L/kg
MRT [16]: 42 min
bioavailability [17]: 0%
pEC50 (Influenza A virus [18]): 6.82
pEC50 (Human respirovirus 3): 8.05
pEC50 (Human coronavirus 229E): 7.60
pEC50 (SARS-CoV-2): 7.47
CC50 (A549 [6]): 661 nM
CC50 [7]: 688 nM
CC50 (A549 [8]): 590 nM
pEC50 [19]: 7.47
pEC50 [20]: 7.44
Activity (Influenza A virus [21]): 60%
Activity (Influenza A virus [22]): >90%
inhibition (H1-HeLa [23]): Active
inhibition (H1-HeLa [24]): Active
inhibition (H1-HeLa [25]): Active
inhibition (H1-HeLa [26]): Active

CCCC(C)C1(CC)C(=O)NC(=O)NC1=O (stereo not given) [PENTOBARBITAL]
Activity [27]: Non-Toxic

CN(C)S(=O)(=O)c1ccc(N2CCCC2)c(C(=O)Nc2ccccc2)c1
pEC50 [1]: 5.30

CN(C)S(=O)(=O)c1ccc(N2CCCC2)c(C(=O)Nc2ccc(F)cc2)c1
pEC50 [1]: 5.86

C[S@](=N)(=O)c1ccc(N2CC[C@H](O)C2)c(-c2cc3ccccc3[nH]2)c1
pEC50 [1]: 6.55
chromatographic logD [2]: 2.7
CL free [5]: < 12 mL/min/kg

CN(C)S(=O)(=O)c1ccc(N2CCCC2)c(-c2nc3ccccc3[nH]2)c1
pEC50 [1]: 5.35
